# pIC50: −log10 of the molar value.
# Experiments:
# [1] = biological target: T1, Focal adhesion kinase 1 (Homo sapiens, UniProt Q05397); experiment: Inhibition of FAK (unknown origin)
# Target sequence in this assay (Q05397 whole entry): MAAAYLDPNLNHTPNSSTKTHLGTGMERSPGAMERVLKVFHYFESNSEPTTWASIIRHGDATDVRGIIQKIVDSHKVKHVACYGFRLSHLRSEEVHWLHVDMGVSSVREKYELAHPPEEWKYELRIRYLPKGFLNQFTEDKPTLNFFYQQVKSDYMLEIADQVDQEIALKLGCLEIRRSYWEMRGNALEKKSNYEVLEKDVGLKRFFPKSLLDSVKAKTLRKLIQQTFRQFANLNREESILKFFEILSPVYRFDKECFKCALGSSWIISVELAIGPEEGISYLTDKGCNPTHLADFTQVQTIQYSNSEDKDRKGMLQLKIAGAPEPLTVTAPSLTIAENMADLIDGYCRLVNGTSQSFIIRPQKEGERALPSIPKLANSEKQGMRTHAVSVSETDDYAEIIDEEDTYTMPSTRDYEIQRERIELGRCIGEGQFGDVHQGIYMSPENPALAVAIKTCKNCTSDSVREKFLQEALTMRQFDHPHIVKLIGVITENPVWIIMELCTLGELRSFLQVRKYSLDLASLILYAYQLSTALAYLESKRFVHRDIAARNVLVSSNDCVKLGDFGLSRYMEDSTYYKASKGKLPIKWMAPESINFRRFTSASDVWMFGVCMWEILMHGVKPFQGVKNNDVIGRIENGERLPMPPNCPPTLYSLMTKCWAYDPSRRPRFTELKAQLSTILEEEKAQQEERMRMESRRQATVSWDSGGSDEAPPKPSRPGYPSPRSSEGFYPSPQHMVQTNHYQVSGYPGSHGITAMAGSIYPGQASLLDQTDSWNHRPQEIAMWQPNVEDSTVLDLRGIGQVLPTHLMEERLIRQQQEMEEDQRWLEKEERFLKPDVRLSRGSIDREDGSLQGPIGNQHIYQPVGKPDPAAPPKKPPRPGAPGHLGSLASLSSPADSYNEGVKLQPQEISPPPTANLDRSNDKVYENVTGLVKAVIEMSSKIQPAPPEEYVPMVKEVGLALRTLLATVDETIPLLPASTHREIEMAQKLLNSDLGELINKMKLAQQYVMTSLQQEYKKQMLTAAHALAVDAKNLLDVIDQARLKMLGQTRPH
# [2] = system: HCT-116; experiment: Cytotoxicity against human HCT-116 cells; type: functional, cell-based
# [3] = system: DLD-1; experiment: Cytotoxicity against human DLD1 cells assessed as growth inhibition; type: functional, cell-based
# [4] = system: MCF7; experiment: Antiproliferative activity against human MCF7 cells assessed as reduction in cell viability incubated for 72 hrs by MTT assay; type: functional, cell-based; conditions: MCF7, 72 h
# [5] = system: SGC-7901; experiment: Antiproliferative activity against human SGC-7901 cells assessed as reduction in cell viability incubated for 72 hrs by MTT assay; type: functional, cell-based; conditions: SGC-7901, 72 h
# [6] = system: A-375; experiment: Antiproliferative activity against human A-375 cells assessed as reduction in cell viability incubated for 72 hrs by MTT assay; type: functional, cell-based; conditions: A-375, 72 h
# [7] = system: HepG2; experiment: Antiproliferative activity against human HepG2 cells assessed as reduction in cell viability incubated for 72 hrs by MTT assay; type: functional, cell-based; conditions: HepG2, 72 h
# [8] = system: MGC-803; experiment: Antiproliferative activity against human MGC-803 cells; type: functional, cell-based
# [9] = system: MDA-MB-231; experiment: Antiproliferative activity against human MDA-MB-231 cells; type: functional, cell-based
# [10] = biological target: Histone deacetylase 2 (Homo sapiens, UniProt Q92769); experiment: Inhibition of HDAC2 (unknown origin)
# Sequence of Histone deacetylase 2 (Q92769 whole entry): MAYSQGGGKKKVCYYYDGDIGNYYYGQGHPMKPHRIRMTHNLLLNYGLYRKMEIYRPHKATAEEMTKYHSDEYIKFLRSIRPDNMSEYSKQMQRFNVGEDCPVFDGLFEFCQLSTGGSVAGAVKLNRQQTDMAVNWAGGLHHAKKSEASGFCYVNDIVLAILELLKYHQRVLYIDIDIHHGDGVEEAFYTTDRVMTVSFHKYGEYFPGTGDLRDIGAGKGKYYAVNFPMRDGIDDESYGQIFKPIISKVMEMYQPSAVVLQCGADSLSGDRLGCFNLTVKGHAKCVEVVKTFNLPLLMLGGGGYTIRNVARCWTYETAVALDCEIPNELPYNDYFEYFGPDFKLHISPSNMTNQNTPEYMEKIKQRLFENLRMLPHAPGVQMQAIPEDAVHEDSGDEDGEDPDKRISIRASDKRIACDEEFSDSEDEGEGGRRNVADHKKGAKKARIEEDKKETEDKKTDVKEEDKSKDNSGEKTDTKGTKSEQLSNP
# [11] = system: DU-145; experiment: Antiproliferative activity against human DU-145 cells; type: functional, cell-based
# [12] = system: HGC-27; experiment: Antiproliferative activity against human HGC-27 cells; type: functional, cell-based
# [13] = biological target: Histone deacetylase 3 (Homo sapiens, UniProt O15379); experiment: Inhibition of HDAC3 (unknown origin)
# [14] = system: KYSE-450; experiment: Antiproliferative activity against human KYSE-450 cells; type: functional, cell-based
# [15] = system: A549; experiment: Antiproliferative activity against human A549 cells; type: functional, cell-based
# [16] = system: ECa-109 cell line; experiment: Antiproliferative activity against human EC109 cells; type: functional, cell-based
# [17] = system: BGC-823; experiment: Antiproliferative activity against human BGC-823 cells; type: functional, cell-based
# [18] = biological target: Histone deacetylase 1 (Homo sapiens, UniProt Q13547); experiment: Inhibition of HDAC1 (unknown origin)
# Sequence of Histone deacetylase 1 (Q13547 whole entry): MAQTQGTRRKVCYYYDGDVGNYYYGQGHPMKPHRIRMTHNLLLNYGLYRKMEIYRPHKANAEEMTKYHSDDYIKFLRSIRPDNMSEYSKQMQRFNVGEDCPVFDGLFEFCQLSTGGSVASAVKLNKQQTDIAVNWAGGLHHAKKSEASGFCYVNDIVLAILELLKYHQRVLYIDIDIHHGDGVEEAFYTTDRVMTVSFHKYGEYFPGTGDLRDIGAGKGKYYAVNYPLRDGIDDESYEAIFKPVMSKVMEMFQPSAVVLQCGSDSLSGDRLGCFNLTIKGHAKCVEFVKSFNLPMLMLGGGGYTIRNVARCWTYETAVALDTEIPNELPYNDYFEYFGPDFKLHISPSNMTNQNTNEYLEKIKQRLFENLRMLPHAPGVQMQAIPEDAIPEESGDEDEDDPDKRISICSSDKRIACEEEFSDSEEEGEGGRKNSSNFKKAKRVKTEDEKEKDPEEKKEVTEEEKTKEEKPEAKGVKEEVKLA
# [19] = system: HCT-116; experiment: Antiproliferative activity against human HCT-116 cells; type: functional, cell-based
# [20] = system: MCF7; experiment: Antiproliferative activity against human MCF7 cells; type: functional, cell-based
# [21] = Antiproliferative activity against human PC-3 cells; type: functional, cell-based
# [22] = system: TE-1; experiment: Antiproliferative activity against human TE-1 cells; type: functional, cell-based
# [23] = system: NCI-H520; experiment: Antiproliferative activity against human NCI-H520 cells; type: functional, cell-based
# [24] = Half life in human at 20 mg/kg, po; type: ADME, organism-based; conditions: in vivo
# [25] = Half life in human plasma; type: ADME, cell-free
# [26] = biological target: T1, Focal adhesion kinase 1; experiment: Inhibition of FAK (unknown origin) at 0.5 uM relative to control
# Target sequence in this assay (Q05397 2-1052 limits assumed): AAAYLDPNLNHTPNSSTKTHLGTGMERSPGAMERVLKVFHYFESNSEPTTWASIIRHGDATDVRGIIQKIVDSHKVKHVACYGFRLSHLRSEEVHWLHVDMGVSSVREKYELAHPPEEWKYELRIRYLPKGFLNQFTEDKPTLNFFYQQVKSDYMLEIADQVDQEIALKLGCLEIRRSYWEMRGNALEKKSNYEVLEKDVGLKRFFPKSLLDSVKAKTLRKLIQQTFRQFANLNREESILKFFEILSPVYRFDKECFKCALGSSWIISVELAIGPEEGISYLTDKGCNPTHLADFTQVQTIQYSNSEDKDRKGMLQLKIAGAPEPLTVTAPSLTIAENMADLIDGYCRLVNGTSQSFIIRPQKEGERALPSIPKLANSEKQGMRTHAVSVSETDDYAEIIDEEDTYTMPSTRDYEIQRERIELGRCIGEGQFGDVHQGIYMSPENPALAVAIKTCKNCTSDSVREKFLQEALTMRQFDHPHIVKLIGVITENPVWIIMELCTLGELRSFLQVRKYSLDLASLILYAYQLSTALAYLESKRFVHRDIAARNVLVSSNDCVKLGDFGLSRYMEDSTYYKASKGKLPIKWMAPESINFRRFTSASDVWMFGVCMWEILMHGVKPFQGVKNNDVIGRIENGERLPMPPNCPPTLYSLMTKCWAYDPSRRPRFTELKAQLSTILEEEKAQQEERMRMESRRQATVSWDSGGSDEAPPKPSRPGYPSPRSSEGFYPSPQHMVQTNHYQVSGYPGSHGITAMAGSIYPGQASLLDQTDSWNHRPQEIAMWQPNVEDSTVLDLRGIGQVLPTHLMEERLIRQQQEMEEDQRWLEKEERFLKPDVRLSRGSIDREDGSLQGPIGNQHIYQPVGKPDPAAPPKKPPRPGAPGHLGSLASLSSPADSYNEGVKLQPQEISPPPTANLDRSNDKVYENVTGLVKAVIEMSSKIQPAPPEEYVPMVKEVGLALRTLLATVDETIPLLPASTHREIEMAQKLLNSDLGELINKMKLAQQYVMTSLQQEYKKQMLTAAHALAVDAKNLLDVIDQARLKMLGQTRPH
# [27] = biological target: T2, von Hippel-Lindau disease tumor suppressor/Bromodomain-containing protein 4 (Homo sapiens, UniProt O60885+P40337); experiment: PROTAC activity at BRD4/VHL E3 ligase in human HEK293 cells assessed as maximal degradation of BRD4 at 10 nM incubated for 18 hrs by Nano-Glo HiBiT assay relative to control; type: cell-based
# T2 sequence (P40337 whole entry, looked up, other chains not shown): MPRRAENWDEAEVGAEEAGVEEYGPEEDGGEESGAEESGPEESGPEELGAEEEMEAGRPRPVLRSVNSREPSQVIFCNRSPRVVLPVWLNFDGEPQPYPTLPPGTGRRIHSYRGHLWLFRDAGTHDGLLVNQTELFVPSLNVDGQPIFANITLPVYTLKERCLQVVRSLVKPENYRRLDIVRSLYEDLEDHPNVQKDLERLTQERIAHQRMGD
# [28] = biological target: T1, Focal adhesion kinase 1; experiment: Inhibition of FAK (unknown origin) at 0.1 uM relative to control
# Target sequence in this assay (Q05397 2-1052 limits assumed): as the sequence (Q05397 2-1052 limits assumed) above
# [29] = biological target: Insulin receptor (Homo sapiens, UniProt P06213); experiment: Inhibition of INSR (unknown origin)
# Sequence of Insulin receptor (P06213 28-758 limits assumed): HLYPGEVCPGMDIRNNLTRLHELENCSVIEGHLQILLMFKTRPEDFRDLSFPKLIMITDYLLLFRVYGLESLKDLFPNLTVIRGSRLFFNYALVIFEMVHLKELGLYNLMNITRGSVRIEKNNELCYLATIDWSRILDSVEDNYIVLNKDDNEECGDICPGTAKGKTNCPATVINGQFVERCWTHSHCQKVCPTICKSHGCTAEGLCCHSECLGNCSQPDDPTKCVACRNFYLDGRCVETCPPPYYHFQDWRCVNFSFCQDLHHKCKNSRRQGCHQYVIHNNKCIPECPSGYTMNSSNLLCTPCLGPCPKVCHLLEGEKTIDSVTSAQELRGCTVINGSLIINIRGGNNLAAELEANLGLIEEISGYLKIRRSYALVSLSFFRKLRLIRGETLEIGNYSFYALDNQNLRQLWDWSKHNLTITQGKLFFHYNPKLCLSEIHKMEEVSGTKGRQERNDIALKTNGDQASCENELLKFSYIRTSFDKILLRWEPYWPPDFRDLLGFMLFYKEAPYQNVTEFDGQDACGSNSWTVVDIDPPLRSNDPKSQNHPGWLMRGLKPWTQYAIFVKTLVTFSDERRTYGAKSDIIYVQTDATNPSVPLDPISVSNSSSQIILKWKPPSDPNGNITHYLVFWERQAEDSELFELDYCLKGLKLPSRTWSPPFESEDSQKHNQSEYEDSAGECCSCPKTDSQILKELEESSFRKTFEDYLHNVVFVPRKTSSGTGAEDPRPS
# Sequence of Insulin receptor (P06213 763-1382 limits assumed): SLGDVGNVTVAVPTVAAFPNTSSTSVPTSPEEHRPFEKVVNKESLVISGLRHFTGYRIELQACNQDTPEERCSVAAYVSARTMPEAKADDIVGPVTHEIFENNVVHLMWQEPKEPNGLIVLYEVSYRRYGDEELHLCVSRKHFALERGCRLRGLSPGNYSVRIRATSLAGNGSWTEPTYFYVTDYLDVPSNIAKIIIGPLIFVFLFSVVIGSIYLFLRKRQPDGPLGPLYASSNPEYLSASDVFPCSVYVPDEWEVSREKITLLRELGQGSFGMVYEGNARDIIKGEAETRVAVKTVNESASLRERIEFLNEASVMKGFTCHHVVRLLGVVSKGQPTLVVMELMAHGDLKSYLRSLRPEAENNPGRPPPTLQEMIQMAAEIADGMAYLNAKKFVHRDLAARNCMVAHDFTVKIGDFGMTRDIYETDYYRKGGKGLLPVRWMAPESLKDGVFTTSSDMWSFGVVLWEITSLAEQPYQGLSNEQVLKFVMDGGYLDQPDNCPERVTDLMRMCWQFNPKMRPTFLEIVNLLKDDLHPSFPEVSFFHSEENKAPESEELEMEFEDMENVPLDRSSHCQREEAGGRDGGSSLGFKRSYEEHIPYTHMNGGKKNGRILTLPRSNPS
# [30] = system: HeLa; experiment: Antiproliferative activity against human HeLa cells assessed as reduction in cell viability by MTT assay; type: functional, cell-based
# [31] = system: MDA-MB-231; experiment: Antiproliferative activity against human MDA-MB-231 cells assessed as reduction in cell viability by MTT assay; type: functional, cell-based
# [32] = system: HCT-116; experiment: Antiproliferative activity against human HCT-116 cells assessed as reduction in cell viability by MTT assay; type: functional, cell-based
# [33] = biological target: T2, von Hippel-Lindau disease tumor suppressor/Bromodomain-containing protein 4; experiment: PROTAC activity at BRD4/VHL E3 ligase in human HEK293 cells assessed as degradation of BRD4 incubated for 18 hrs by Nano-Glo HiBiT assay; type: cell-based
# [34] = system: MGC-803; experiment: Antitumor activity against human MGC-803 cells xenografted in nude mouse assessed as tumor inhibition at 20 mg/kg, ip administered once every two days for 21 days relative to control; type: functional; set-up: scale not given: the % may be the effect or the level left; conditions: time 21 day
# [35] = system: MCF7; experiment: Antiproliferative activity against human MCF7 cells assessed as reduction in cell viability incubated for 48 hrs by MTT assay; type: functional, cell-based; conditions: MCF7, 48 h
# [36] = Antiproliferative activity against human BEAS-2B cells assessed as reduction in cell viability incubated for 48 hrs by MTT assay; type: toxicity, cell-based
# [37] = system: HCT-15; experiment: Antiproliferative activity against human HCT-15 cells assessed as reduction in cell viability incubated for 48 hrs by MTT assay; type: functional, cell-based; conditions: HCT-15, 48 h
# [38] = Half life in human at 1 mg/kg, iv by LC-MS/MS analysis; type: ADME, organism-based; conditions: in vivo
# [39] = system: PANC-1; experiment: Antiproliferative activity against human PANC-1 cells assessed as reduction in cell viability incubated for 48 hrs by MTT assay; type: functional, cell-based; conditions: PANC-1, 48 h
# [40] = system: A549; experiment: Antiproliferative activity against human A549 cells assessed as reduction in cell viability incubated for 48 hrs by MTT assay; type: functional, cell-based; conditions: A549, 48 h
# [41] = system: HepG2; experiment: Antiproliferative activity against human HepG2 cells assessed as reduction in cell viability incubated for 48 hrs by MTT assay; type: functional, cell-based; conditions: HepG2, 48 h
# [42] = system: U-87 MG; experiment: Antiproliferative activity against human U-87 MG cells assessed as reduction in cell viability incubated for 48 hrs by MTT assay; type: functional, cell-based, U-87MG ATCC
# [43] = system: BXPC-3; experiment: Antiproliferative activity against human BXPC-3 cells assessed as reduction in cell viability incubated for 48 hrs by MTT assay; type: functional, cell-based; conditions: BXPC-3, 48 h
# [44] = Half life in human at 10 mg/kg, po by LC-MS/MS analysis; type: ADME, organism-based; conditions: in vivo
# [45] = system: MDA-MB-231; experiment: Antiproliferative activity against human MDA-MB-231 cells assessed as reduction in cell viability incubated for 48 hrs by MTT assay; type: functional, cell-based; conditions: MDA-MB-231, 48 h
# [46] = Antiproliferative activity against HUVEC cells assessed as cell growth inhibition measured after 72 hrs by crystal violet staining based analysis; type: toxicity; conditions: human
# [47] = Oral bioavailability in human at 10 mg/kg; type: ADME, organism-based; conditions: in vivo
smiles,measurement,setting,value
CC(=O)NCCC(=O)Nc1cc(Nc2ncc(Br)c(Nc3ccc(NC(C)=O)cc3NC(C)=O)n2)ccc1OCCF,pIC50,[1],8.43
COc1cc2nc(-c3ccc(C(F)(F)F)cc3)cc(OCCCN3CCN(C)CC3)c2cc1OC,pIC50,[2],5.51
same,pIC50,[3],5.65
O=C(CSC1Nc2ccccc2C(=O)N1c1ccccc1)N1CCN(c2ccccc2Cl)CC1 (stereo unspecified),pIC50,[4],5.10
same,pIC50,[5],4.93
same,pIC50,[6],5.15
same,pIC50,[7],5.25
CNC(=O)c1ccccc1Nc1nc(Nc2ccc(NC(=O)CCCCCCC(=O)NO)cc2)ncc1Cl,pIC50,[8],6.74
same,pIC50,[9],5.72
same,pIC50,[10],6.20
same,pIC50,[11],6.33
same,pIC50,[12],6.29
same,pIC50,[13],5.98
same,pIC50,[14],6.21
same,pIC50,[15],5.75
same,pIC50,[16],6.01
same,pIC50,[17],6.71
same,pIC50,[18],6.28
same,pIC50,[19],6.61
same,pIC50,[20],6.08
same,pIC50,[21],6.18
same,pIC50,[22],5.95
same,pIC50,[23],5.59
COc1cc2nc(-c3ccc(C(F)(F)F)cc3)cc(OCCCNC3CCN(C)CC3)c2cc1OC,pIC50,[2],5.48
same,pIC50,[3],5.75
COc1cc(C(=O)NC2CCNCC2)ccc1Nc1nc(Oc2cccc3c2C(=O)CC3)c2cc[nH]c2n1,half-life,[24],4.08 h
CN(c1ncccc1CNc1nc(Nc2ccc(N3CCN(CCCCCCC(=O)NCCNc4cccc5c4C(=O)N(C4CCC(=O)NC4=O)C5=O)CC3)cc2)ncc1C(F)(F)F)S(C)(=O)=O (stereo unspecified),half-life,[25],> 3.25 h
same,inhibition,[26],96.9%
same,Emax,[27],85%
same,inhibition,[28],84.4%
CNC(=O)c1ccccc1Nc1nc(Nc2ccc(N3CCN(C(=S)SCCCN4CCOCC4)CC3)cc2)ncc1Cl,pIC50,[29],6.77
same,pIC50,[30],5.57
same,pIC50,[31],5.38
same,pIC50,[32],6.19
same,pIC50,[1],7.28
Cc1ncsc1-c1ccc(CNC(=O)[C@@H]2C[C@@H](O)CN2C(=O)[C@@H](NC(=O)CCOCCOc2ccc(Nc3ncc(C(F)(F)F)c(NCc4cccc(N(C)S(C)(=O)=O)c4)n3)cc2)C(C)(C)C)cc1,DC50,[33],3 nM
CNC(=O)c1ccccc1Nc1nc(Nc2ccc(/C=C/C(=O)N3CCOCC3)cc2)ncc1Cl,pIC50,[1],7.33
O=C1CCc2cccc(Oc3nc(Nc4ccc(N5CCN(C(=S)SCCCN6CCOCC6)CC5)cc4)ncc3C(F)(F)F)c21,pIC50,[29],< 6.00
same,pIC50,[30],6.57
same,pIC50,[31],6.59
same,pIC50,[32],6.72
CNC(=O)c1ccccc1Nc1cc(Nc2ccc(N3CCN(CC(=O)N[C@H](C(=O)N4C[C@H](O)C[C@H]4C(=O)N[C@@H](C)c4ccc(-c5scnc5C)cc4)C(C)(C)C)CC3)cc2OC)ncc1C(F)(F)F,DC50,[33],8.4 nM
Clc1ccc(-c2cc(OCCCN3CCOCC3)c3cc(-c4ccco4)ccc3n2)cc1,pIC50,[2],5.53
same,pIC50,[3],5.68
COc1cc2nc(-c3ccc(C(F)(F)F)cc3)cc(OCCCNCC3CCCO3)c2cc1OC (stereo unspecified),pIC50,[2],5.25
same,pIC50,[3],5.61
CNC(=O)c1ccccc1Nc1nc(Nc2ccc(N3CCOCC3)cc2OC)ncc1Cl,Activity,[34],53.53%
CCCS(=O)(=O)NCC(=O)N1CCN(c2ccc(Nc3ncc(Cl)c(Nc4ccccc4C(=O)NC)n3)cc2)CC1,pIC50,[29],6.97
same,pIC50,[30],6.72
same,pIC50,[31],6.74
same,pIC50,[32],6.77
same,pIC50,[1],7.32
Clc1cccc(Cn2ccc3cnc(NC4CCC(N5CCNCC5)CC4)nc32)c1 (stereo unspecified),pIC50,[35],5.70
same,IC50 at 48 h,[36],7100 nM
same,pIC50,[37],6.05
same,half-life,[38],2.41 h
same,pIC50,[39],5.43
same,pIC50,[40],6.10
same,pIC50,[41],5.46
same,pIC50,[42],4.90
same,pIC50,[43],5.64
same,pIC50,[1],8.00
same,half-life,[44],3.8 h
same,pIC50,[45],5.80
same,IC50 at 72 h,[46],6900 nM
same,bioavailability,[47],77.6%

# — ChEMBL document CHEMBL6078619, “Targeting focal adhesion kinase (FAK) in cancer therapy: A recent update on inhibitors and PROTAC degraders” (Eur J Med Chem, 2024)
